Assay results as given in US4837228A, “Antiinflammatory and antimicrobial compounds and compositions” (The University of Mississippi, priority 1982, dated 1989).
Converted amounts (≈) assume the structure as drawn. “Also recorded” adds a separate entry of the source. Like-named read-outs stand apart in the source and are kept apart here.

Assays:
[1] = system: carrageenan-induced rat paw edema; assay: carrageenan-induced rat paw edema test, intraperitoneal dosing; assay type: in vivo; parameters: key to mean difference in volume (MDV): post-injection minus pre-injection mean paw volume
Description: Two methods were used to assess the antiinflammatory activity of the compounds of the invention: the carrageenan-induced rat paw edema test and, the erythrocyte membrane stabilization assay.
(§1) In the Rat Paw Edema Test, the rats utilized were divided into test groups of six to eight animals, weighed and marked so that individual rats could be identified; one hour before testing all rats were given a 700 mg/kg intraperitoneal injection of ethyl urethane in distilled water to render them tractable during testing. A circle was drawn, with a felt-tipped marker, around the hind leg of each rat just above the ankle, and each rat was dosed with a test or control compound by intraperitoneal injection. Negative control groups received the vehicle; while positive control groups received a dose of phenylbutazone (PBZ) as shown in Table II. Test compounds were given at doses of 60, 120, 240 and 480 mg/kg. The positive controls were given at 120 mg/kg and 60 mg/kg. Phenylbutazone was prepared for injection by suspending it in normal saline using Tween 60. The rats were then held in group cages for 30 minutes. The volume of the left hind paw was measured using a mercury displacement pleysmograph. The paw is dipped into the mercury until the mercury touches the line above the ankle. Mercury is then withdrawn until the mercury returns to its original level. The amount of mercury removed is measured in milliliters (ml). The mercury can be measured accurately to 0.01 ml. This left hind paw was then injected with 0.1 ml of a 5% w/v solution of viscous carageenan in normal saline. The injection was given between the metatarsal bones using a 27 gauge needle, and the rats then held in group cages for 3 hours. The volume of the left hind paws was measured again in the pleysmograph. The results were computed in the following manner:
(§2) a. A mean is taken for both the pre-injection and post-injection paw volume of each test group.
(§3) b. The mean difference in volume (MDV) for each test group is computed by subtracting the pre-injection means from the post-injection mean.
(§4) c. The percent of control is computed for each test [formula] The percent of control is used to compare the efficacy of the various drug treatments.
(§5) d. The percent increase in paw volume is calculated for each group as: [formula] The percent increase is used to compare the amount of edma observed in one experiment to the amount of edma observed in other experiments.
The data from the rat paw test were further analyzed using a one-way analysis of varience (ANOVA) and Duncan's New Multiple Range Test. The pre-injection score of each animal was subtracted from his post-injection score and an analysis of the different scores were conducted.
The procedure described above was followed. […] The vehicle control used was Tween 60, Arlacel and distilled water prepared without CBC(II).

[2] = system: erythrocyte (heat-induced hemolysis); assay: erythrocyte membrane stabilization assay (heat-induced erythrocyte hemolysis); assay type: cell-based; conditions: Erythrocyte; for inhibition at 250 µM: 2.5 × 10^-4 M
Description: The published procedure (Proc. Soc. Exp. Biol. Med. 1967; 125; 837-842 Brow et al) for in vitro assay for antiinflammatory agents based on stabilization of erythrocytes was used. All compounds were prepared for administration by dissolving in physiologic saline or suspending in 2% ethanol in saline and the pH adjusted to 7.4 The concentrations tested in one series are given in Table 8. Aspirin (ASA) and phenylbutazone were used as positive controls for comparison of activity. Tests using this procedure were successfully and repeatedly using either 40% or 20% RBC suspensions.

[3] = system: Trichophyton mentagrophytes; assay: MIC, two-fold (broth) serial dilution, T. mentagrophytes; assay type: cell-based; conditions: Trichophyton mentagrophytes, read-out: MIC
Description: (§6) Both qualitative and quantitative screens were performed. Qualitative screening was accomplished using the agar well diffusion assay technque while quantitative screening was accomplished by the two-fold (broth) serial dilution method to determine the minimum inhibitory concentration (MIC). Innoculation was accomplished with one loop-full of a 1:10 dilution of the 24-hour-old broth culture, (fungal cultures and M.smegmatis more often required 48 to 72 hours of incubation) of the test organisms in sterile water. Streptomycin sulfate was used as a positive control for antibacterial activity while amphitericin B was used as an antifungal positive control. Organisms utilized in the screens included gram-positive, gram-negative, and acid-fast bacteria as well as different types of fungi. […] An intermediate type activity is seen where R is hydrogen. However, where R is lengthened up to C15 a decrease in activity was noted. Total saturation of the two double bonds in the compounds having a methyl side chain lead, in most cases, to an increase in both antifungal and antibacterial activity.

[4] = deaths and adverse effects observed in the rat paw edema test; assay type: in vivo
Description: as §1
The eighth rat died within 24 hours of injection.

Bacillus subtilis = assay: MIC, two-fold (broth) serial dilution, B. subtilis; assay type: cell-based; conditions: Bacillus subtilis, read-out: MIC
Description: as §6

Mycobacterium smegmatis = assay: MIC, two-fold (broth) serial dilution, M. smegmatis; assay type: cell-based; conditions: Mycolicibacterium smegmatis, read-out: MIC
Description: as §6

Saccharomyces cerevisiae = assay: MIC, two-fold (broth) serial dilution, S. cerevisiae; assay type: cell-based; conditions: Saccharomyces cerevisiae, read-out: MIC
Description: as §6

Staphylococcus aureus = assay: MIC, two-fold (broth) serial dilution, S. aureus; assay type: cell-based; conditions: Staphylococcus aureus, read-out: MIC
Description: as §6

[5] = system: carrageenan-induced rat paw edema; assay: carrageenan-induced rat paw edema test, oral gavage; assay type: in vivo; parameters: key to mean difference in volume (MDV): ml; post-injection minus pre-injection mean paw volume
Description: as §1, with “A circle was drawn, with a felt-tipped marker, around the hind leg of each rat just above the ankle, and each rat was dosed with a test or control compound by intraperitoneal injection.” left out
as §2, §3, §4, §5
[…] The test was conducted twice, once with nonfasted rats and once with rats that had been fasted during the 24 hour period prior to dosing. The 60 mg/kg phenylbutazone control group was not used in the test with fasted animals. Tween 60 in normal saline was the vehicle control for the non-fasted rats and normal saline was the vehicle control for the fasted rats.

[6] = Table 4, 60 mg/kg i.p., fasted rats
[7] = Table 4, 120 mg/kg i.p., fasted rats
[8] = Table 8, 1 × 10^-4 M, read-out: inhibition of heat-induced erythrocyte hemolysis
[9] = Table 6, 60 mg/kg oral, non-fasted rats
[10] = Table 6, 120 mg/kg oral, non-fasted rats
[11] = Table 7, 120 mg/kg oral, fasted rats, doses approximate

With `CC(C)=CCCC1(C)C=Cc2c(O)cc(C)cc2O1` (centres unmarked) [CBC (II), 2 methyl-2(4'-methyl-pent-3'-enyl)-5-hydroxy-7-metylchromene] the “mean difference in volume (MDV)” value [1, 6] was 0.090, the “percent increase in paw volume” value [1, 6] was 6.742% and the percent of control [1, 6] was 47.059%. For the same molecule, the “mean difference in volume (MDV)” value [1, 7] was 0.070, the “percent increase in paw volume” value [1, 7] was 4.956% and the percent of control [1, 7] was 36.601%. For the same molecule, the “antiinflammatory activity compared with PBZ in words” value ([1]; i.p.) was “slightly less activity than PBZ at the 120 mg/kg dose; also recorded: as active at PBZ at 60 mg/kg”, the “antiinflammatory effect in words” value ([1]; i.p.) was “active at both 60 mg/kg and 120 mg/kg” and the inhibition at 100 µM [2, 8] was 86%. For the same molecule, the MIC ([3]; 48 h) was 6.25 µg/mL (≈ 24.2 µM), the MIC ([3]; 72 h) was 6.25 µg/mL (≈ 24.2 µM) and the “toxic or adverse effects” value ([4]; 60 and 120 mg/kg i.p.) was “No toxic or adverse effects were observed”. It also gave an MIC (Bacillus subtilis; 24 h) of 3.12 µg/mL (≈ 12.1 µM), an MIC (Bacillus subtilis; 48 h) of 3.12 µg/mL (≈ 12.1 µM) and an MIC (Mycobacterium smegmatis; 24 h) of 3.12 µg/mL (≈ 12.1 µM). For the same molecule, the MIC (Mycobacterium smegmatis; 48 h) was 6.25 µg/mL (≈ 24.2 µM), the MIC (Saccharomyces cerevisiae; 48 h) was 6.25 µg/mL (≈ 24.2 µM) and the MIC (Saccharomyces cerevisiae; 72 h) was 12.5 µg/mL (≈ 48.4 µM). The MIC (Staphylococcus aureus; 24 h) was 3.12 µg/mL (≈ 12.1 µM) and the MIC (Staphylococcus aureus; 48 h) was 3.12 µg/mL (≈ 12.1 µM).

With `CCCCC1C(=O)N(c2ccccc2)N(c2ccccc2)C1=O` [Phenylbutazone, reference compound] the inhibition at 60 mg/kg ([1]; Rattus norvegicus, ip, Table 5, 60 mg/kg i.p., * P = 0.01) was 52%, the inhibition at 120 mg/kg ([1]; Rattus norvegicus, ip, Table 5, 120 mg/kg i.p., * P = 0.01, read-out: inhibition of carrageenan-induced rat paw edema) was 76% and the “percent increase in paw volume” value ([1]; Table 1, 120 mg/kg i.p.) was 10.316%. The percent of control ([1]; Table 1, 120 mg/kg i.p.) was 22.973%, the “mean difference in volume (MDV)” value ([1]; Table 1, 120 mg/kg i.p., paw volume measured in ml) was 0.106 and the “group mean difference score” value ([1]; Table 3, 120 mg/kg) was 0.016. For the same molecule, the “difference of mean scores versus vehicle control (Duncan's test)” value ([1]; Table 3, 120 mg/kg, ** p 0.01) was 0.356, the “difference of mean scores (Duncan's test)” value ([1]; Table 3, PBZ 120 mg/kg versus CBC 240 mg/kg) was 0.102 and the “difference of mean scores (Duncan's test)” value ([1]; Table 3, PBZ 120 mg/kg versus CBC 480 mg/kg, * p 0.05) was 0.149. The “mean difference in volume (MDV)” value [1, 6] was 0.090, the “percent increase in paw volume” value [1, 6] was 6.742% and the percent of control [1, 6] was 47.059%. The “mean difference in volume (MDV)” value [1, 7] was 0.046, the “percent increase in paw volume” value [1, 7] was 3.254% and the percent of control [1, 7] was 24.183%. The inhibition at 100 µM [2, 8] was 16%, the inhibition at 20 µM ([2]; Table 8, 2 × 10^-5 M, read-out: inhibition of heat-induced erythrocyte hemolysis) was 10% and the inhibition at 250 µM ([2]; Table 9 Test 1 (20% RBC), read-out: percent inhibition of heat-induced erythrocyte hemolysis) was 54%. For the same molecule, the inhibition at 25 µM ([2]; Table 9 Test 1 (20% RBC), 2.5 × 10^-5 M, read-out: percent inhibition of heat-induced erythrocyte hemolysis) was 31%, the inhibition at 250 µM ([2]; Table 9 Test 2 (40% RBC), read-out: percent inhibition of heat-induced erythrocyte hemolysis) was 70% and the inhibition at 20 µM ([2]; Table 9 Test 3 (20% RBC), 2.0 × 10^-5 M, read-out: percent inhibition of heat-induced erythrocyte hemolysis) was 10%. For the same molecule, the inhibition at 250 µM ([2]; Table 9 Test 3 (20% RBC), read-out: percent inhibition of heat-induced erythrocyte hemolysis) was 49%, the inhibition at 100 µM ([2]; read-out: percent inhibition of heat-induced erythrocyte hemolysis, Table 9 Test 3 (20% RBC), 1.0 × 10^-4 M) was 16% and the inhibition at 20 µM ([2]; 2×10^-5 M, read-out: inhibition of heat-induced red cell hemolysis) was 10%. For the same molecule, the inhibition at 100 µM ([2]; 10^-4 M, read-out: inhibition of heat-induced red cell hemolysis) was 16%, the deaths ([4]; 240 mg/kg i.p. plus ethyl urethane i.p., listed as PBZ) was “rapid deaths; also recorded: Seven of the eight animals receiving 240 mg/kg of PBZ died before the test could be completed” and the inhibition at 120 mg/kg ([5]; Rattus norvegicus, po, Table 5, 120 mg/kg oral, fasted rats, N.S., read-out: inhibition of carrageenan-induced rat paw edema) was 36%. For the same molecule, the inhibition at 60 mg/kg ([5]; Rattus norvegicus, po, read-out: inhibition of carrageenan-induced rat paw edema, Table 5, 60 mg/kg oral, nonfasted rats, * P = 0.01) was 37%, the inhibition at 120 mg/kg ([5]; Rattus norvegicus, po, read-out: inhibition of carrageenan-induced rat paw edema, Table 5, 120 mg/kg oral, nonfasted rats) was 22% and the “mean difference in volume (MDV)” value [5, 9] was 0.489. For the same molecule, the “percent increase in paw volume” value [5, 9] was 50.257%, the percent of control [5, 9] was 78.200% and the “mean difference in volume (MDV)” value [5, 10] was 0.392. For the same molecule, the “percent increase in paw volume” value [5, 10] was 36.098%, the percent of control [5, 10] was 62.667% and the “mean difference in volume (MDV)” value [5, 11] was 0.403. For the same molecule, the “percent increase in paw volume” value [5, 11] was 31.051%, the percent of control [5, 11] was 64.400% and the “antiinflammatory activity compared with PBZ in words” value ([5]; oral) was “slightly more effective than CBC at 120 mg/kg in the nonfasted rats”.
